Test results taken from patent US20240199605A1, “SMALL MOLECULAR INHIBITORS OF NF-kB INDUCING KINASE” (Janssen Pharmaceutica NV, priority 2019, published 2024).
pIC50: −log10 of the molar value.

Tests used:
[1] = biological target: recombinant human NF-kappaB-inducing kinase (NIK/MAP3K14) (Homo sapiens (Human), UniProt Q99558); experiment: Inhibition of auto-phosphorylation of recombinant human NIK/MAP3K14 (AlphaScreen); type: biochemical; conditions: NIK auto-phosphorylation, 5 μM ATP, 1 nM NIK, 2 h at 25° C.; average of values
recombinant human NF-kappaB-inducing kinase (NIK/MAP3K14), sequence (Q99558 whole entry): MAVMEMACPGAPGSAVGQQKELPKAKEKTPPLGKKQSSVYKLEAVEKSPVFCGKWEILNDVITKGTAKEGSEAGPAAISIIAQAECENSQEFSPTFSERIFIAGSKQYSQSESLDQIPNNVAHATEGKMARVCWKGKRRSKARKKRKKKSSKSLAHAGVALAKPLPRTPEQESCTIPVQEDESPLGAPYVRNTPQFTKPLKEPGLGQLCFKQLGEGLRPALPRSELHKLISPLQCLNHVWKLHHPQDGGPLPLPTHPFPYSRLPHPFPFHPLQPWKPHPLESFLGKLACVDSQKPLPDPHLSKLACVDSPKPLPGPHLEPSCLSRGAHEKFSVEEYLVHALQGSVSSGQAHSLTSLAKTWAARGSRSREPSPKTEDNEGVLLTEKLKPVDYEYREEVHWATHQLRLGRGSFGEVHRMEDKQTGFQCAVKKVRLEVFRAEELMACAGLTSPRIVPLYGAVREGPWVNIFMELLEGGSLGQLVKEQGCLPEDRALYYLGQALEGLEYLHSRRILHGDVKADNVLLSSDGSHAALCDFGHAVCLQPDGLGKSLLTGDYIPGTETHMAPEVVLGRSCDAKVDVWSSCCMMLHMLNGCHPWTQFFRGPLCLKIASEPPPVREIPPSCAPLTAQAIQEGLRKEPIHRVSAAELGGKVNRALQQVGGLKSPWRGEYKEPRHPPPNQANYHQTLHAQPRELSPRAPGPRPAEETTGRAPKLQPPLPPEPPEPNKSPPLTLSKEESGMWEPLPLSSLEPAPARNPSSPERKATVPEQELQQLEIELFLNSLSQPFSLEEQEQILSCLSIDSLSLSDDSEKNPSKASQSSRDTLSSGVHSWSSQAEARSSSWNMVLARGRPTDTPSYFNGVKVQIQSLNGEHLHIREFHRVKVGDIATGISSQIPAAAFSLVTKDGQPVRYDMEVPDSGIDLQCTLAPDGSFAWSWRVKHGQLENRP
Method in brief: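 GST-tagged NIK (1 nM) auto-phosphorylated with 5 μM ATP for 2 h at 25° C. in 50 mM Tris pH 7.5, 5 mM MgCl2, 1 mM EGTA, 1 mM DTT, 0.1 mM Na3VO4, 0.01% Tween 20 (0.7% DMSO). Detected by AlphaScreen via anti-phospho-IKK Ser176/180 antibody; IC50 from sigmoidal fit of % inhibition versus log concentration.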

[2] = system: p-IKKα levels in L363 (NIK translocated multiple myeloma) cells; experiment: Effect of compounds on p-IKKα levels in L363 cells (AlphaLISA SureFire Ultra); type: cell-based, human; conditions: Homo sapiens, L-363, 6 h, BAFF stimulated, MG132, 6 h, average of values, read-out: Assay 2 IC50
Method in brief: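 Inhibition of p-IKKα (Ser176/180) read by AlphaLISA after 6 h, 37 °C compound exposure (11-point 1:3 series, 0.3% DMSO) of L363 cells pre-incubated overnight ± 250 ng/ml BAFF and plated ± BAFF ± 10 μM MG132. Normalised to BAFF/MG132/DMSO and unstimulated controls; IC50 by sigmoidal fitting, duplicates.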

SMILES | pIC50 [1] | pIC50 [2]
CN1CC[C@@](O)(C#Cc2cccc(-c3ncc4c(-c5ccccc5)cnc(N)c4n3)c2)C1=O [Example 121, (R)-3-((3-(8-Amino-5-phenylpyrido[3,4-d]pyrimidin-2-yl)phenyl)ethynyl)-3-hydroxy-1-methylpyrrolidin-2-one] | 9.15 | 7.38
CN1CC[C@@](O)(C#Cc2cccc(-c3ccc4ncnc(N5CCC5)c4c3)c2)C1=O [Example 243, (R)-3-((3-(4-(Azetidin-1-yl)quinazolin-6-yl)phenyl)ethynyl)-3-hydroxy-1-methylpyrrolidin-2-one] | 7.85 | 6.17
CN1CC[C@@](O)(C#Cc2cccc(-c3ccc4ncnc(N5CC(C)(C)C5)c4n3)c2)C1=O [Example 226, (R)-3-((3-(4-(3,3-Dimethylazetidin-1-yl)pyrido[3,2-d]pyrimidin-6-yl)phenyl)ethynyl)-3-hydroxy-1-methylpyrrolidin-2-one] | 7.38 | 5.85
Cc1nc(N)c2nc(-c3cccc(C#C[C@@]4(O)C(=O)N(C)[C@@H]5C[C@@H]54)c3)ccc2n1 [Example 273, (1R,4R,5S)-4-((3-(4-Amino-2-methylpyrido[3,2-d]pyrimidin-6-yl)phenyl)ethynyl)-4-hydroxy-2-methyl-2-azabicyclo[3.1.0]hexan-3-one] | 8.57 | 7.57
Cc1ccc(C#C[C@]2(O)CCN(C)C2=O)cc1-c1nc2c(N)ncnc2s1 [Example 10, (R)-3-((3-(7-Aminothiazolo[5,4-d]pyrimidin-2-yl)-4-methylphenyl)ethynyl)-3-hydroxy-1-methylpyrrolidin-2-one] | ≥ 9.30 | 8.09
C[C@@](O)(C#Cc1cccc(-c2ncc3ccnc(N)c3n2)c1)c1nccs1 [Example 32, (R)-4-[3-(8-Aminopyrido[3,4-d]pyrimidin-2-yl)phenyl]-2-thiazol-2-yl-but-3-yn-2-ol] | ≥ 9.30 | 7.92
CN1CC[C@@](O)(C#Cc2cccc(-c3ccc4nc(N)nc(N)c4n3)c2)C1=O [Example 203, (R)-3-((3-(2,4-Diaminopyrido[3,2-d]pyrimidin-6-yl)phenyl)ethynyl)-3-hydroxy-1-methylpyrrolidin-2-one] | 8.92 | 7.00
CN1CC[C@@](O)(C#Cc2cccc(-c3ccc4ncnc(C(F)(F)F)c4n3)c2)C1=O [Example 278, (R)-3-Hydroxy-1-methyl-3-((3-(4-(trifluoromethyl)pyrido[3,2-d]pyrimidin-6-yl)phenyl)ethynyl)pyrrolidin-2-one] | 6.77 | < 5.30
CN1CC[C@@](O)(C#Cc2cccc(-c3cc(-c4cccs4)c4ncnc(N)c4n3)c2)C1=O [Example 311, (R)-3-((3-(4-Amino-8-(thiophen-2-yl)pyrido[3,2-d]pyrimidin-6-yl)phenyl)ethynyl)-3-hydroxy-1-methylpyrrolidin-2-one] | ≥ 9.30 | 8.44
CN1CC[C@@](O)(C#Cc2cccc(-c3ccc4ncnc(N5CCCC5)c4n3)c2)C1=O [Example 222, (R)-3-Hydroxy-1-methyl-3-((3-(4-(pyrrolidin-1-yl)pyrido[3,2-d]pyrimidin-6-yl)phenyl)ethynyl)pyrrolidin-2-one] | 8.38 | 6.41
CN1CC[C@@](O)(C#Cc2cccc(-c3ccc4c(n3)c(N)nn4C)c2)C1=O [Example 21, (R)-3-[2-[3-(3-Amino-1-methyl-pyrazolo[4,3-b]pyridin-5-yl)phenyl]ethynyl]-3-hydroxy-1-methyl-pyrrolidin-2-one] | 7.66 | 6.23
CC1(C)CC[C@](O)(C#Cc2cccc(-c3ccc4ncnc(N)c4n3)c2)C1=O [Example 132, (S)-2-[2-[3-(4-Aminopyrido[3,2-d]pyrimidin-6-yl)phenyl]ethynyl]-2-hydroxy-5,5-dimethyl-cyclopentanone] | 7.34 | 6.14
Nc1nccc2cnc(-c3cccc(C#CC4(O)CCN(CC(F)(F)F)C4=O)c3)nc12 (stereo in doubt) [Example 73, (S)-3-[2-[3-(8-Aminopyrido[3,4-d]pyrimidin-2-yl)phenyl]ethynyl]-3-hydroxy-1-(2,2,2-trifluoroethyl)pyrrolidin-2-one] | 5.76 | < 5.30
CN1CC[C@@](O)(C#Cc2cccc(-c3nc4c(N)ncnc4s3)c2)C1=O [Example 101, (R)-3-((3-(7-Aminothiazolo[5,4-d]pyrimidin-2-yl)phenyl)ethynyl)-3-hydroxy-1-methylpyrrolidin-2-one] | 8.92 | 7.59
Cc1cc2cnc(-c3cccc(C#C[C@@](C)(O)c4nccs4)c3)nc2c(N)n1 [Example 51, (R)-4-(3-(8-Amino-6-methylpyrido[3,4-d]pyrimidin-2-yl)phenyl)-2-(thiazol-2-yl)but-3-yn-2-ol] | 9.00 | 6.32
O=c1[nH]ccc2cnc(-c3cccc(C#CC4(O)CCc5cccnc54)c3)nc12 (stereo in doubt) [Example 47, (R)-2-[3-[2-(7-Hydroxy-5,6-dihydrocyclopenta[b]pyridin-7-yl)ethynyl]phenyl]-7H-pyrido[3,4-d]pyrimidin-8-one] | 7.38 | 5.80
CN1CC[C@](O)(C#Cc2cccc(-c3cc(Br)c4ncnc(N)c4n3)c2)C1=O [Example 254, (S)-3-((3-(4-Amino-8-bromopyrido[3,2-d]pyrimidin-6-yl)phenyl)ethynyl)-3-hydroxy-1-methylpyrrolidin-2-one] | 6.64 | 5.88
Cc1nc(-c2cccc(C#C[C@]3(O)CCN(C)C3=O)c2)cc2c(N)ncnc12 [Example 136, (R)-3-[2-[3-(4-Amino-8-methyl-pyrido[3,4-d]pyrimidin-6-yl)phenyl]ethynyl]-3-hydroxy-1-methyl-pyrrolidin-2-one] | 9.15 | 7.22
Nc1nccc2c(C(F)(F)F)nc(-c3cccc(C#C[C@]4(O)CCc5cccnc54)c3)nc12 [Example 61, (R)-7-((3-(8-Amino-4-(trifluoromethyl)pyrido[3,4-d]pyrimidin-2-yl)phenyl)ethynyl)-6,7-dihydro-5H-cyclopenta[b]pyridin-7-ol] | 8.40 | 6.77
CN1CC[C@@](O)(C#Cc2cccc(-c3ccc4c(Br)cnc(N)c4n3)c2)C1=O [Example 112, (R)-3-[2-[3-(8-Amino-5-bromo-1,7-naphthyridin-2-yl)phenyl]ethynyl]-3-hydroxy-1-methyl-pyrrolidin-2-one] | ≥ 9.30 | 8.32
Cc1ccc(C#C[C@]2(O)CCN(C)C2=O)cc1-c1nc(C)c2ncnc(N)c2n1 [Example 301, (R)-3-[2-[3-(8-Amino-4-methyl-pyrimido[5,4-d]pyrimidin-2-yl)-4-methyl-phenyl]ethynyl]-3-hydroxy-1-methyl-pyrrolidin-2-one] | 8.35 | 7.32
Cc1cnc(N)c2nc(-c3cccc(C#C[C@@](C)(O)c4nccs4)c3)ncc12 [Example 50, (R)-4-(3-(8-Amino-5-methylpyrido[3,4-d]pyrimidin-2-yl)phenyl)-2-(thiazol-2-yl)but-3-yn-2-ol] | ≥ 9.30 | 7.77
CN1CC[C@@](O)(C#Cc2cccc(-c3ccc4nccc(N)c4n3)c2)C1=O [Example 219, (R)-3-((3-(8-Amino-1,5-naphthyridin-2-yl)phenyl)ethynyl)-3-hydroxy-1-methylpyrrolidin-2-one] | 6.62 | < 5.30
CN1CC[C@](O)(C#Cc2cccc(-c3ccc4ncnc(N5CCC5)c4n3)c2)C1=O [Example 231, (S)-3-((3-(4-(Azetidin-1-yl)pyrido[3,2-d]pyrimidin-6-yl)phenyl)ethynyl)-3-hydroxy-1-methylpyrrolidin-2-one] | 6.47 | < 5.30
Cc1ccc(C#C[C@@](C)(O)c2nccs2)cc1-c1ncc2ccnc(N)c2n1 [Example 69, (R)-4-(3-(8-Aminopyrido[3,4-d]pyrimidin-2-yl)-4-methylphenyl)-2-(thiazol-2-yl)but-3-yn-2-ol] | 9.00 | 6.82
Cc1nc(N)c2nc(-c3cccc(C#C[C@@](C)(O)c4nc(C(F)(F)F)cs4)c3)ccc2n1 [Example 192, (R)-4-(3-(4-Amino-2-methylpyrido[3,2-d]pyrimidin-6-yl)phenyl)-2-(4-(trifluoromethyl)thiazol-2-yl)but-3-yn-2-ol] | 5.95 | < 5.30
Cc1ncc(Br)c2ccc(-c3cccc(C#C[C@]4(O)CCN(C)C4=O)c3)nc12 [Example 249, (R)-3-((3-(5-Bromo-8-methyl-1,7-naphthyridin-2-yl)phenyl)ethynyl)-3-hydroxy-1-methylpyrrolidin-2-one] | 8.14 | 6.33
CN1CC[C@@](O)(C#Cc2cccc(-c3ncc4c(-c5cn[nH]c5)cnc(N)c4n3)c2)C1=O [Example 124, (R)-3-[2-[3-[8-Amino-5-(1H-pyrazol-4-yl)pyrido[3,4-d]pyrimidin-2-yl]phenyl]ethynyl]-3-hydroxy-1-methyl-pyrrolidin-2-one] | ≥ 9.30 | 8.11
CN1CC[C@@](O)(C#Cc2cccc(-c3cc(F)c4ncnc(N)c4c3)c2)C1=O [Example 113, (R)-3-[2-[3-(4-Amino-8-fluoro-quinazolin-6-yl)phenyl]ethynyl]-3-hydroxy-1-methyl-pyrrolidin-2-one] | ≥ 9.30 | 7.04
